Results reported in patent US6537992B2, “Regulation of organic nitrate tolerance” (priority 2001, dated 2003).

Experiments:
[1] = Standing systolic blood pressure and heart rate in normal volunteers during transdermal GTN, with oral folate or placebo; assay type: in vivo, human; conditions: acute transdermal GTN 0.6 mg/hr, 3 hours after initial patch application, both placebo and folate groups
Protocol: (§1) Normal volunteers (n=20) were randomized in a double bind, placebo-controlled fashion to either oral folate (5 mg per day) or placebo. After 1 week of this double-blind therapy, subjects returned to the laboratory. At that time, measures of standing systolic blood pressure and heart rate were recorded. Subsequently, measurements of forearm blood flow were made at rest and in response to sublingual nitroglycerin (0.6 mg). […] A Randomized Double-blind, Placebo-controlled Study, J Cardiovasc Pharm. 1999;34:645-659.
(§2) Subsequently all subjects all received transdermal GTN (0.6 mg/hr). Standing heart rate and blood pressure responses were repeated 3 hours after initial patch application. Subjects were discharged from the laboratory with instructions to take transdermal GTN continuously for the next 5 to 7 days, changing the patch each day at 0800 hours. After 5 to 7 days, subjects returned to the laboratory where measures of standing systolic blood pressure and heart rate as well as forearm blood flow were repeated.

[2] = Forearm blood flow by strain gauge plethysmography at rest and in response to sublingual nitroglycerin; assay type: in vivo, human; conditions: sublingual GTN 0.6 mg, before continuous GTN therapy, both groups
Protocol: as §1, §2

SMILES: O=[N+]([O-])OCC(CO[N+](=O)[O-])O[N+](=O)[O-] [GTN, glyceryl trinitrate]
- heart rate after acute administration [1]: significant increase
- systolic blood pressure after acute administration [1]: significant fall
- forearm blood flow after sublingual administration [2]: similar, significant increase
